For experiment [1], the target named is Adenosine kinase (Homo sapiens, UniProt P55263).
For experiment [2], the target named is Cyclin-dependent kinase 7 (Homo sapiens, UniProt P50613).
In experiment [3] the target is GTP-binding protein 4 (Homo sapiens, UniProt Q9BZE4).
In experiment [4] the target is Tyrosine-protein kinase HCK (Homo sapiens, UniProt P08631).
Experiment [5] has as its target T1, Inhibitor of nuclear factor kappa-B kinase subunit epsilon (Homo sapiens, UniProt Q14164).
T1 sequence (Q14164 whole entry): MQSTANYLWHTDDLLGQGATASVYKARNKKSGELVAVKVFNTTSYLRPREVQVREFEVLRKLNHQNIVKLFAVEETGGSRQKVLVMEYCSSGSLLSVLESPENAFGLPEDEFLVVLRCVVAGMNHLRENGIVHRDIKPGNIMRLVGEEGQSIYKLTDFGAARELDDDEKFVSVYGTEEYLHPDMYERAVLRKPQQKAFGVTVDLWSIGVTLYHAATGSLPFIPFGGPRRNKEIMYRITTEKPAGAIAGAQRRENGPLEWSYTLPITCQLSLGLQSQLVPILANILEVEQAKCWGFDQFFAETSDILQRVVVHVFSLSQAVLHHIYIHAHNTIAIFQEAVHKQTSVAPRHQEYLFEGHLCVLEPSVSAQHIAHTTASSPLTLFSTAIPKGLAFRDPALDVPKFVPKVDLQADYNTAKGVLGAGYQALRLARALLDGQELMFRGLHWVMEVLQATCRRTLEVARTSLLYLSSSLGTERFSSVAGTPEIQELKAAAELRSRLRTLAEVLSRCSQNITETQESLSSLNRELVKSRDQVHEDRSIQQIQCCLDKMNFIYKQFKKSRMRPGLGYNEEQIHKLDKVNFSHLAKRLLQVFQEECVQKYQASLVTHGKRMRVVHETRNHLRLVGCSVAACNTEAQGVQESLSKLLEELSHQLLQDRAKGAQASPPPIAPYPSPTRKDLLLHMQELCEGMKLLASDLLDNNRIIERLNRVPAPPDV

In experiment [6] the target is Mitogen-activated protein kinase 3 (Homo sapiens, UniProt P27361).
Experiment [7] deals with T2, DNA replication licensing factor MCM4 (Homo sapiens, UniProt P33991).
T2 sequence (P33991 whole entry): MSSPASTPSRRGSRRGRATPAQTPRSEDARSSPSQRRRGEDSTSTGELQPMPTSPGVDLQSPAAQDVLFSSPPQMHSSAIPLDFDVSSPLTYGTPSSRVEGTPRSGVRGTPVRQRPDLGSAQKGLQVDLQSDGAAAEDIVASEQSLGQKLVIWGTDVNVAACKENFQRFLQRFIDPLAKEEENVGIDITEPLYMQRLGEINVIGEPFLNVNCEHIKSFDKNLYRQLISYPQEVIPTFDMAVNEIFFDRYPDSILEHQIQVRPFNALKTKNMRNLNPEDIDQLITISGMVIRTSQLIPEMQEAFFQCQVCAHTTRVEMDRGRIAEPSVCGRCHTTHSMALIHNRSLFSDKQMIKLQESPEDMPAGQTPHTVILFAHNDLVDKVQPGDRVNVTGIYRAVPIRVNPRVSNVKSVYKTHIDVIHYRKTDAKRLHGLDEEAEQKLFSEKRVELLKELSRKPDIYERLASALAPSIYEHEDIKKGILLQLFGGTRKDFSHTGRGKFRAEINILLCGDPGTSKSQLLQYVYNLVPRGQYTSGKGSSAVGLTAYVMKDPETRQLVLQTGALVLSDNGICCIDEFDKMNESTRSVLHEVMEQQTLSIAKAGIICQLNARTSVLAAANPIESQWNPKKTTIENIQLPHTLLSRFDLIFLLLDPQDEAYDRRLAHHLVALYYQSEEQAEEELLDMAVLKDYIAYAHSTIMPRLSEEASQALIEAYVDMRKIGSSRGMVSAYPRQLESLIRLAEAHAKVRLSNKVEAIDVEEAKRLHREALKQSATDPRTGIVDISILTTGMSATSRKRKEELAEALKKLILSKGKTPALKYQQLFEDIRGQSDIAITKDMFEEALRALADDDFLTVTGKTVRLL

Experiment [8] has as its target High affinity nerve growth factor receptor (Homo sapiens, UniProt P04629).
Experiment [9] has as its target cAMP-dependent protein kinase catalytic subunit alpha (Homo sapiens, UniProt P17612).
Experiment [10] addresses Protein kinase C beta type (Homo sapiens, UniProt P05771).
Experiment [11] addresses T3, Serine/threonine-protein kinase TAO1 (Homo sapiens, UniProt Q7L7X3).
T3 sequence (Q7L7X3 whole entry): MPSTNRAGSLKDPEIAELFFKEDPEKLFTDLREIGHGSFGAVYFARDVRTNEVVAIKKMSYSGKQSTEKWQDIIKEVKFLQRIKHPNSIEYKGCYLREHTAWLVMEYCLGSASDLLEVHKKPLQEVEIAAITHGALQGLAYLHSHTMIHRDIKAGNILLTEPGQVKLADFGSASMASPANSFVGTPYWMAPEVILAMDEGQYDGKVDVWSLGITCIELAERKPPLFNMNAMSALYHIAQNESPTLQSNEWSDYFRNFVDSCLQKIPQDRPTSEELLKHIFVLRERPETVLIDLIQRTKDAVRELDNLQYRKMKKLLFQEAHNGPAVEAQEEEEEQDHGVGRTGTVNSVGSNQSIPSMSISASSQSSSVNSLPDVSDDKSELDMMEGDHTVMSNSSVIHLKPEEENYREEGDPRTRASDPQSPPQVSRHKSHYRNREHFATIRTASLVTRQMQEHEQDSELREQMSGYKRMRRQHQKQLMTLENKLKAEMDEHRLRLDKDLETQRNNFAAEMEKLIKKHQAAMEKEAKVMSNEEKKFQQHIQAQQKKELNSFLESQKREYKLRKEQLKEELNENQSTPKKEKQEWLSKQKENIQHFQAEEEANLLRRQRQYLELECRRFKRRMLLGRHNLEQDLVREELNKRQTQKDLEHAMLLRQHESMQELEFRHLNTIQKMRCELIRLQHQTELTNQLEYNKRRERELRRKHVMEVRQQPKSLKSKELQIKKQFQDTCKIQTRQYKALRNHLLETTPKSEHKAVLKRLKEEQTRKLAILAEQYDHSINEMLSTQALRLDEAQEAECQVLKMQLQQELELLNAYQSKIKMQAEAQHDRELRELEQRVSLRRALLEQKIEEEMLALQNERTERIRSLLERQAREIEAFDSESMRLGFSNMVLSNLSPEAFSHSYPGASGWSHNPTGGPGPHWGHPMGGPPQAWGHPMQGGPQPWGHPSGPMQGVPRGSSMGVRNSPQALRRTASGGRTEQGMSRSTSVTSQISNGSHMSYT

These results are taken from ChEMBL document CHEMBL3991601, “The target landscape of clinical kinase drugs” (Science, 2017).

Activity calls are given as the source filed them. For most assays here, no stated cut-off is given here; in the data, actives have a measured Kd and inactives only a lower limit.

Sequence of High affinity nerve growth factor receptor (P04629 whole entry): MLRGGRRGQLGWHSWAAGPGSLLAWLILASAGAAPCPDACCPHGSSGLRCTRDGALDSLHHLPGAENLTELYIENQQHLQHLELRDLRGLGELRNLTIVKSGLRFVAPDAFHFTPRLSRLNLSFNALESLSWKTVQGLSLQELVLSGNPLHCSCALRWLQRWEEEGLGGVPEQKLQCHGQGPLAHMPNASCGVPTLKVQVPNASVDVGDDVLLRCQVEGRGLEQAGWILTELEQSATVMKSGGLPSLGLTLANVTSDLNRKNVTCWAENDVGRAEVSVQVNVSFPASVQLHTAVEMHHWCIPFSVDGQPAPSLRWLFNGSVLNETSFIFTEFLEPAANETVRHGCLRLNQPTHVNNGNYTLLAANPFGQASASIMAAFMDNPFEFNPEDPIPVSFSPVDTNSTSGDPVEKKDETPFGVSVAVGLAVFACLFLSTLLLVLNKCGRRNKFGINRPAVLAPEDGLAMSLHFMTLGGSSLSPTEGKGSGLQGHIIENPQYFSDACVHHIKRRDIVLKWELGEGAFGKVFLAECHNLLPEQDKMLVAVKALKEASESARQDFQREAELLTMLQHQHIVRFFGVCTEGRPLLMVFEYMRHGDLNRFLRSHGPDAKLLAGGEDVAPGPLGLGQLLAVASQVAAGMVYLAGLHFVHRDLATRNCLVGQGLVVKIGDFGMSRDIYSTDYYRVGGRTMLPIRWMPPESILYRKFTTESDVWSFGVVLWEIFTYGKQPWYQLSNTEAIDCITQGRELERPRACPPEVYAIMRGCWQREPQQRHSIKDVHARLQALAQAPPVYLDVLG
Sequence of Tyrosine-protein kinase HCK (P08631 whole entry): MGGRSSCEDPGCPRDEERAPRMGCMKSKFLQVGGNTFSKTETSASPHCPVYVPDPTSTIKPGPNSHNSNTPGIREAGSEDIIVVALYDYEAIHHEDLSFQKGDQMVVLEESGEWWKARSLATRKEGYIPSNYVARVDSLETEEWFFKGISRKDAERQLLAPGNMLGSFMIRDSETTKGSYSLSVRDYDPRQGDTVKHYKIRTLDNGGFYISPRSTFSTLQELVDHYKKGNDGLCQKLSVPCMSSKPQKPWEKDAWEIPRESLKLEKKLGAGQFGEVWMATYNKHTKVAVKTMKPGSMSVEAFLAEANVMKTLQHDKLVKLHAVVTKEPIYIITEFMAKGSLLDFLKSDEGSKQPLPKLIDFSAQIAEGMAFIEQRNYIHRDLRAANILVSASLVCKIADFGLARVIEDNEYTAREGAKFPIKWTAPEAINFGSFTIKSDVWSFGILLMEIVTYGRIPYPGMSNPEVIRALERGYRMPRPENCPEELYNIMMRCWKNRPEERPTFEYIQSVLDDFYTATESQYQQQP
Sequence of Cyclin-dependent kinase 7 (P50613 whole entry): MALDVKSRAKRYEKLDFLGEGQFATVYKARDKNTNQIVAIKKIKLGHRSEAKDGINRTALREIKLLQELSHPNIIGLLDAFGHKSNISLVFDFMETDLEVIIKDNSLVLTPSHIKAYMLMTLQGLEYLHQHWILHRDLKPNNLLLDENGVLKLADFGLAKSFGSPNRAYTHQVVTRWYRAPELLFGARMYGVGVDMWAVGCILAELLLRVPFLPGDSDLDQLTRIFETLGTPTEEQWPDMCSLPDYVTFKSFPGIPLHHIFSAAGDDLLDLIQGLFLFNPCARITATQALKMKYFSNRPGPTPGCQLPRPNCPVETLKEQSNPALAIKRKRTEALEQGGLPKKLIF
Sequence of Adenosine kinase (P55263 whole entry): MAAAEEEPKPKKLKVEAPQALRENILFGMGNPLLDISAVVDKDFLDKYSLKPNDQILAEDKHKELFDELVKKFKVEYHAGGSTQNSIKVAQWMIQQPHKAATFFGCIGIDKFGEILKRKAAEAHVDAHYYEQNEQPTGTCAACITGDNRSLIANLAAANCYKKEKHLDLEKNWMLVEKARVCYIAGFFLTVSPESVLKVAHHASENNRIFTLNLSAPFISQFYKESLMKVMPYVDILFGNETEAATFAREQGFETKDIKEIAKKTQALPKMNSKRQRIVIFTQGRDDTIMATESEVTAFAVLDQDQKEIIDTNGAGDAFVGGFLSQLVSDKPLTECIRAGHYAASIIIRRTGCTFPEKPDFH
Sequence of Protein kinase C beta type (P05771 whole entry): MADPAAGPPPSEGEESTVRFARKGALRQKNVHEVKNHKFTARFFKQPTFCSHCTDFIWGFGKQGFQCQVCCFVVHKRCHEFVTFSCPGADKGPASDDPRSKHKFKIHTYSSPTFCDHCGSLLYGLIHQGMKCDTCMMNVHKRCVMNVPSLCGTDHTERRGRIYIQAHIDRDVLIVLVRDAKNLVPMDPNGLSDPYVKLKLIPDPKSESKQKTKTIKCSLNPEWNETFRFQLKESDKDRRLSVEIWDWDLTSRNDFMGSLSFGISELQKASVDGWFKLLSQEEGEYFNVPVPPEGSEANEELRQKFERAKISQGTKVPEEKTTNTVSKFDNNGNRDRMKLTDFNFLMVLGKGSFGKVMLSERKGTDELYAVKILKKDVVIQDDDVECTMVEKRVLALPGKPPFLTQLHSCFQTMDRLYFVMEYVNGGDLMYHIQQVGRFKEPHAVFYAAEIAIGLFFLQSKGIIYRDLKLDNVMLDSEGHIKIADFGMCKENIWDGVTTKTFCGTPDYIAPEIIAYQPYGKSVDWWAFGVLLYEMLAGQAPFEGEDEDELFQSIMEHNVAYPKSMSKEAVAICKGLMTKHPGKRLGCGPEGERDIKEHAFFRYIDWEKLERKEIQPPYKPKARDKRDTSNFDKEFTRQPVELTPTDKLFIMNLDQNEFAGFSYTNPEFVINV
Sequence of Mitogen-activated protein kinase 3 (P27361 whole entry): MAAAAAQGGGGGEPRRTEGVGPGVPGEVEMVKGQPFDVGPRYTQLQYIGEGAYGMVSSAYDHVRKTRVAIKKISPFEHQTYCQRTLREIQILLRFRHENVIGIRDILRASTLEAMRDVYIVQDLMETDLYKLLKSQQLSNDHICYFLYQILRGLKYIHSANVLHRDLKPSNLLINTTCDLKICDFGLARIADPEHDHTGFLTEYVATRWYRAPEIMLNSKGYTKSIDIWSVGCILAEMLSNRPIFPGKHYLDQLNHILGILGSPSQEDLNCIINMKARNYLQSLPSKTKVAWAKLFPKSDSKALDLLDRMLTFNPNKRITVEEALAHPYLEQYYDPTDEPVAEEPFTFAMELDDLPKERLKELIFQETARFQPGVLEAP

Regarding `O=C(Nc1cc(C(F)(F)F)cc(C(F)(F)F)c1)c1cc(Cl)ccc1O` [IMD-0354], the Kd in experiment [1], in [2], in [3], in [4], in experiment [5] and in [6] was > 30 µM (inactive) each time. Besides, the Kd in experiment [7], in experiment [8], in [9], in experiment [10] and in experiment [11] was > 30 µM (inactive) throughout.
For `CNC(=O)c1cccc2cc(Oc3ccnc4cc(OCC5(N)CC5)c(OC)cc34)ccc12` [LUCITANIB], the Kd in experiment [1], in experiment [2], in experiment [3], in experiment [4], in experiment [5] and in [6] was > 30 µM (inactive) throughout. Also, the Kd in experiment [7], in experiment [8], in [9], in experiment [10] and in experiment [11] was > 30 µM (inactive) in each case.
For the compound `NC1(c2ccc(-c3nc4ccn5c(=O)[nH]nc5c4cc3-c3ccccc3)cc2)CCC1` [MK-2206], the Kd in [1], in experiment [2], in [3], in experiment [4], in experiment [5] and in [6] was > 30 µM (inactive) in each case. Further, the Kd in experiment [7], in experiment [8], in experiment [9], in [10] and in experiment [11] was > 30 µM (inactive) in each case.
On to `CN(C[C@@H]1COCCO1)S(=O)(=O)Nc1ccc2ccc3ncc(-c4cnn(C)c4)cc3c(=O)c2c1` [MK-2461], for which the Kd in [1], in experiment [2], in experiment [3], in experiment [4], in experiment [5] and in experiment [6] was > 30 µM (inactive) throughout. For the same compound, the Kd in [7], in [8], in experiment [9], in experiment [10] and in experiment [11] was > 30 µM (inactive) in each case.
Take `Cn1cc(-c2cnc3ccc4ccc(CS(=O)(=O)NCc5ccccn5)cc4c(=O)c3c2)cn1` [MK-8033]: the Kd in experiment [1], in experiment [2], in experiment [3], in [4], in experiment [5] and in [6] was > 30 µM (inactive) in each case. For the same compound, the Kd in [7], in experiment [8], in experiment [9], in experiment [10] and in experiment [11] was > 30 µM (inactive) throughout.
Turning to `FC(F)(F)c1ccc(/C=C/c2nc(COc3ccc(CCCCn4ccnn4)cc3)co2)cc1` [MUBRITINIB], the Kd in experiment [1], in experiment [2], in experiment [3], in [4], in experiment [5] and in experiment [6] was > 30 µM (inactive) each time. Moreover, the Kd in [7], in [8], in [9], in [10] and in experiment [11] was > 30 µM (inactive) throughout.
In the case of `COc1ncc(-c2ccc3nccc(-c4ccnnc4)c3c2)cc1NS(=O)(=O)c1ccc(F)cc1F` [OMIPALISIB], the Kd in experiment [1], in [2], in [3], in [4], in experiment [5] and in [6] was > 30 µM (inactive) in each case. The Kd in experiment [7], in experiment [8], in [9], in experiment [10] and in experiment [11] was > 30 µM (inactive) throughout.
Consider `CCOc1cc2ncc(C#N)c(Nc3ccc(F)c(Cl)c3)c2cc1NC(=O)/C=C/CN(C)C` [PELITINIB], for which the Kd in [1] is > 30 µM (inactive); in experiment [2] it was > 30 µM (inactive); in [3] it was > 30 µM (inactive); in experiment [4], 1.18 µM (active); in experiment [5], > 30 µM (inactive); in experiment [6], > 30 µM (inactive). Moreover, the Kd in experiment [7], in experiment [8], in experiment [9], in [10] and in experiment [11] was > 30 µM (inactive) throughout.
`CCCCCCCCCCCCCCCCCCOP(=O)([O-])OC1CC[N+](C)(C)CC1` [PERIFOSINE]: the Kd in experiment [1], in experiment [2], in [3], in experiment [4], in experiment [5] and in [6] was > 30 µM (inactive) each time. Also, the Kd in experiment [7], in experiment [8], in experiment [9], in experiment [10] and in experiment [11] was > 30 µM (inactive) in each case.
